Tests used:
[1] = for mass density: 298.15 K, 101.33 kPa; for mass density / vapor or sublimation pressure: Liquid; for vapor or sublimation pressure: Ebulliometric method (Recirculating still); for surface tension liquid-gas: 303.15 K, Maximal bubble pressure
[2] = refractive index (Na D-line) (dimensionless); conditions: 298.15 K; 101.33 kPa; Liquid; Standard Abbe refractometry
[3] = xn = mol fraction of the nth substance listed; conditions: 303.15 K, Maximal bubble pressure

COC(C)(C)C [2-methoxy-2-methylpropane]
Conditions	mass density [kg/m3]	refractive index	surface tension liquid-gas [mN/m]
[1]	735.45	–	18.7
[2]	–	1.36766	–

[1]
Conditions	vapor or sublimation pressure [kPa]
301.31 K	38.06
303.21 K	41.03
305.59 K	45.05
308.33 K	50.06
310.85 K	55.05
313.2 K	60.06
315.39 K	65.03
317.47 K	70.07
319.41 K	75.05
321.27 K	80.08
323.02 K	85.05
324.7 K	90.06
325.98 K	94
326.31 K	95.05
328.24 K	101.34

COC(C)(C)C [2-methoxy-2-methylpropane] + C1CCCCC1
[3]
Conditions	surface tension liquid-gas [mN/m]
x1 = 0.046	23.39
x1 = 0.1	22.97
x1 = 0.205	22.23
x1 = 0.308	21.57
x1 = 0.409	21.03
x1 = 0.51	20.58
x1 = 0.614	20.12
x1 = 0.716	19.71
x1 = 0.816	19.34
x1 = 0.901	19.05
x1 = 0.947	18.89

COC(C)(C)C [2-methoxy-2-methylpropane] + CC(C)=O
[3]
Conditions	surface tension liquid-gas [mN/m]
x1 = 0.031	22.14
x1 = 0.074	21.76
x1 = 0.171	21.13
x1 = 0.272	20.59
x1 = 0.378	20.09
x1 = 0.484	19.75
x1 = 0.585	19.47
x1 = 0.681	19.22
x1 = 0.784	18.98
x1 = 0.884	18.74
x1 = 0.94	18.55

CC(C)=O [acetone]
Conditions	mass density [kg/m3]	refractive index	surface tension liquid-gas [mN/m]
[1]	784.23	–	22.45
[2]	–	1.35732	–

Conditions	vapor or sublimation pressure [kPa]
[1], 327.16 K	94

C1CCCCC1 [cyclohexane]
Conditions	mass density [kg/m3]	refractive index	surface tension liquid-gas [mN/m]
[1]	773.84	–	24.1
[2]	–	1.42508	–

Conditions	vapor or sublimation pressure [kPa]
[1], 351.37 K	94
